{"source": "patent EP4635513A1", "about": "“NEAR-INFRARED PHOTOSENSITIZER THAT CAN BE ACTIVATED IN SLIGHTLY ACIDIC TUMOR ENVIRONMENT AND PREPARATION METHOD THEREFOR AND USE THEREOF” (Shenzhen University, priority 2024, dated 2025)", "key": {"[1]": {"assay": "pH-response fluorescence spectra", "type": "physicochemical", "settings": "pH dependence; for fluorescence intensity in the visible light region: excitation 420 nm, PBS buffer with 1% DMSO; for fluorescence emission intensity in the near-infrared region: excitation 760 nm (LET-H, LET-I), 660 nm (LET-Hcy-N)", "procedure": "The photosensitizers prepared in the Embodiments 1-8 were individually dissolved in dimethyl sulfoxide to prepare 10 mM photosensitizer stock solution, which were stored at 4 °C for subsequent use. All experiments were conducted in PBS buffer (1 ×) containing 1% DMSO. 2 µL of the photosensitizer stock solution was added to 2 mL of PBS buffer solutions at different pH values. Absorption spectra and fluorescence spectra of each photosensitizer under various pH conditions were recorded using ultraviolet-visible spectrophotometry and fluorescence spectrophotometry."}, "[2]": {"assay": "Singlet oxygen generation assay with DPBF as trapping agent", "type": "physicochemical", "settings": "808 nm laser irradiation, 0.2 W cm^-2; DMSO", "procedure": "The photosensitizers LET-R (R = H, Cl, Br, I) prepared in the Embodiments 1-4 were assessed. 1,3-Diphenylisobenzofuran (DPBF) was selected as a singlet oxygen trapping agent to determine a singlet oxygen generation capability of each photosensitizer molecule.\nA 1 mM DPBF stock solution was first prepared for use. An appropriate volume of freshly prepared DPBF solution was then added to DMSO to adjust the absorbance at 415 nm to approximately 1.0, followed by addition of photosensitizer solution at appropriate concentration. The ultraviolet-visible absorption spectra were measured after different irradiation times with a near-infrared laser. The singlet oxygen generation capability of each photosensitizer was evaluated by monitoring the absorbance changes of DPBF at 415 nm."}, "[3]": {"assay": "Singlet oxygen quantum yield with ICG as reference standard", "type": "physicochemical", "settings": "DPBF in dichloromethane, near-infrared laser", "procedure": "Using indocyanine green (ICG) as a reference standard, the singlet oxygen quantum yields of photosensitizers LET-R (R = H, Cl, Br, I) were determined. At first, an appropriate volume of freshly prepared DPBF solution was added to dichloromethane to adjust the absorbance at 415 nm to approximately 1.0, followed by addition of test solution (photosensitizer or ICG) at optimized concentration. Samples were then irradiated with a near-infrared laser, and time-dependent ultraviolet-visible spectral changes were recorded. The singlet oxygen quantum yield was calculated using Formula (1): ΦΔ = […] [formula]\nΦΔ represents the singlet oxygen quantum yield of test molecules, and ΦICG represents the singlet oxygen quantum yield of ICG. \"ps\" represents the photosensitizer under investigation, while k represents a slope of DPBF absorbance decay at 415 nm over time. And correction factor F is calculated using Formula (2): […] [formula]\nIn Formula (2), OD represents the absorbance of solutions at a laser wavelength."}, "[4]": {"assay": "Singlet oxygen detection by ESR/EPR spectroscopy with TEMP as trapping agent", "type": "physicochemical", "settings": "near-infrared irradiation", "procedure": "Singlet oxygen generation and characterization were further analyzed by electron spin resonance (ESR) spectroscopy. Using photosensitizers LET-H' and LET-I' as examples, 2,2,6,6-tetramethyl-4-piperidone hydrochloride (TEMP) was employed as the singlet oxygen trapping agent. Two groups of photosensitizer stock solutions were prepared and diluted with TEMP added, one group remained untreated, while another was irradiated with the near-infrared laser, and a blank control group was also prepared for comparison."}, "[5]": {"tested_on": "murine mammary carcinoma cells (4T1 cell line)", "assay": "Photodynamic efficacy at cellular level, cell viability assay", "type": "cell-based", "settings": "Mus musculus, light or radiation study, 4T1 cells, 6 hours incubation, 808 nm (0.2 W/cm^2) laser, 20 minutes irradiation", "procedure": "The photodynamic therapeutic efficacy was evaluated using standardized […] assay protocols to assess the effects of photosensitizer molecules on viability of murine mammary carcinoma cells (4T1 cell line).\nCell culture was performed using Dulbecco's Modified Eagle Medium (DMEM) high glucose supplemented with 10% fetal bovine serum (FBS) and 1% antibiotic-antimycotic solution (penicillin-streptomycin mixture), and maintained in a humidified incubator at 37 °C with 5% CO2. Experimental procedures were initiated when cell density reached 80% confluency. Using photosensitizers LET-H and LET-I as examples, 4T1 cells were seeded in 96-well plates (100 µL, 5×10^3 cells/well) and cultured for 24 hours, then original medium was discarded and replaced with medium containing photosensitizer molecules at a concentration of 20 µM. After 6 hours of incubation, the medium in each well was replaced with fresh medium, and irradiated with an 808 nm (0.2 W/cm^2) laser for different times (0, 5, 10 and 20 min), and placed back in cell culture incubator for continued incubation. After irradiation, the plates were returned to the incubator for continued culture. After 12 hours of incubation, 10 µL of CCK-8 solution was added to each well, and the plates were incubated for one additional hour. Absorbance was subsequently measured at 450 nm using a microplate reader."}}}
{"compound": "CC1(C)C(=CC=C2CCCC(C=CC34OCCCN3c3ccc(I)cc3C4(C)C)=C2Cl)N(CCCO)c2ccc(I)cc21", "note": "(stereo not shown) [LET-I]", "values": [{"measurement": "fluorescence intensity in the visible light region", "setting": "[1]", "value": "decreased with increasing pH"}, {"measurement": "fluorescence emission intensity in the near-infrared region", "setting": "[1]", "value": "enhanced fluorescence emission intensity at higher pH values"}, {"measurement": "singlet oxygen generation capability (DPBF degradation, absorbance at 415 nm)", "setting": "[2]", "value": "superior singlet oxygen generation efficiency"}, {"measurement": "singlet oxygen quantum yield", "setting": "[3]", "value": "superior singlet oxygen generation capability"}, {"measurement": "EPR spectrum, singlet oxygen production", "setting": "[4]", "value": "three isointense paramagnetic resonance peaks (1:1:1)"}, {"measurement": "viability at 20 µM", "setting": "[5]", "value": "< 30", "unit": "%"}]}
{"compound": "CC1(C)C(=CC=C2CCCC(C=CC34OCCCN3c3ccccc3C4(C)C)=C2Cl)N(CCCO)c2ccccc21", "note": "(stereo not shown) [LET-H]", "values": [{"measurement": "fluorescence intensity in the visible light region", "setting": "[1]", "value": "decreased with increasing pH"}, {"measurement": "fluorescence emission intensity in the near-infrared region", "setting": "[1]", "value": "enhanced fluorescence emission intensity at higher pH values"}, {"measurement": "EPR spectrum, singlet oxygen production", "setting": "[4]", "value": "three isointense paramagnetic resonance peaks (1:1:1)"}]}
{"compound": "CCN(CC)c1ccc2c(c1)OC1=C(C=CC34OCCCN3c3ccccc3C4(C)C)CCCC1=C2", "note": "(stereo not shown) [LET-Hcy-N]", "values": [{"measurement": "fluorescence emission intensity in the near-infrared region", "setting": "[1]", "value": "enhanced fluorescence emission intensity at higher pH values"}]}
